According to patent US20220110933A1, “METHODS OF TREATING DISEASE WITH MAGL INHIBITORS” (H. Lundbeck A/S, priority 2019, published 2022):

Columns and labels:
[1] = system: L-DOPA induced dyskinesia in MPTP-lesioned cynomolgus macaques; assay: MPTP-lesioned macaque model of L-DOPA induced dyskinesia (LID); format: in vivo, cynomolgus macaque; conditions: for reduction in median peak-dose dyskinesia after L-DOPA administration: single dose 2 h before L-DOPA, 0-2 h post L-DOPA
Experimental: The study utilized 8 female MPTP-lesioned cynomolgus macaques (10-15 years in age) that have received chronic repeat-treatment with L-DOPA and manifest stable and reproducible dyskinesia, of choreic and dystonic nature, in response to subsequent L-DOPA treatments.
A MGLL inhibitor, Compound 21, (3, 10 and 30 mg/kg), reference drug amantadine (10 mg/kg) and vehicle were administered by oral gavage as a single dose 2 h before a high-dose of L-DOPA (administered as Madopar™). The L-DOPA dose individualized for each animal is one that induced robust and reproducible anti-parkinsonian effects lasting ˜3-4 h but compromised by disabling dyskinesia. The animals were video-recorded for a 6 h period following L-DOPA administration and the effects of each treatment on dyskinesia, parkinsonian disability, duration and quality of anti-parkinsonian benefit (on-time) were scored blinded by a neurologist. Dyskinesia was scored using the non-human primate dyskinesia rating scale (NHPDysRS) and disability was scored using the monkey parkinsonian disability rating scale (mPDRS).
The study design was an ascending dose crossover with all animals receiving each treatment in the order of vehicle, 10 mg/kg amantadine, 3 mg/kg Compound 21, 10 mg/kg Compound 21, and 30 mg/kg Compound 21.

[2] = Plasma exposure and half-life in MPTP-lesioned macaques; format: in vivo, cynomolgus macaque; conditions: cynomolgus monkey

SMILES: O=C(OC(C(F)(F)F)C(F)(F)F)N1CCN(Cc2ccc(Cl)cc2N2CC3CCC(C2)O3)CC1 [Compound 21, 1,1,1,3,3,3-Hexafluoropropan-2-yl 4-(2-(8-oxa-3-azabicyclo[3.2.1]octan-3-yl)-4-chlorobenzyl)piperazine-1-carboxylate]
- dyskinesia in the 1-2 h post L-DOPA interval ([1]; 10 mg/kg p.o.): significant reduction
- reduction in median peak-dose dyskinesia after L-DOPA administration ([1]; 10 mg/kg p.o.): 45%
- reduction in median peak-dose dyskinesia after L-DOPA administration ([1]; 30 mg/kg p.o.): 35%
- statistical significance of reduction in 0-2 hour total dyskinesia scores ([1]; 3, 10 and 30 mg/kg p.o.): did not reach statistical significance
- median peak dose dyskinesia induced by L-DOPA administration ([1]; 3, 10 and 30 mg/kg p.o., 0-2 h post L-DOPA totals): dose-dependently reduced
- anti-dyskinetic effects (overall) ([1]; MPTP-lesioned macaque model of L-DOPA induced dyskinesia): robust anti-dyskinetic effects
- benefit on dystonia and chorea ([1]; data not shown): evidence of benefit on both dystonia and chorea
- therapeutic effects on median dyskinesia ratings compared with amantadine ([1]; versus amantadine 10 mg/kg): of greater magnitude
- half-life ([2]; in vivo): 16 to 34 h

SMILES: NC12CC3CC(CC(C3)C1)C2 [Amantadine, amantadine, reference compound]
- reduction in median peak-dose dyskinesia after L-DOPA administration ([1]; 10 mg/kg p.o.): 29%
- parkinsonian disability ([1]; 10 mg/kg p.o., 0-2 h post L-DOPA administration totals, P<0.05): mild and statistically significant worsening
- concentration at 2 h ([2]; plasma, oral, 10 mg/kg p.o., 2 h post-dose): 1300 ng/mL
- concentration at 8 h ([2]; plasma, oral, 10 mg/kg p.o., 8 h post-dose): 1500 ng/mL
